Test results published in article PMC8894159, “Paltusotine, a novel oral once-daily nonpeptide SST2 receptor agonist, suppresses GH and IGF-1 in healthy volunteers” (Pituitary, 2022).

Columns and labels:
[1] = Relative bioavailability of capsule versus solution and food effect (10 mg); type: in vivo, human; conditions: for Tmax: human, plasma, oral
Protocol: Screening occurred within 28 days prior to the first administered dose (Day 1) in both single-dose and multiple-dose cohorts. Participants were confined to a clinical research unit from Day -2 until the day after the last dose. Dosing of paltusotine or placebo commenced on Day 1 after baseline studies. Participants fasted overnight for ≥ 10 h prior to each dose administration and remained fasting until 4 h post-dose (after collection of the last GH sample after growth hormone-releasing hormone [GHRH] challenge). For the food effect cohort, the study drug was administered 30 min after a high-fat and high-calorie breakfast. Crinetics Pharmaceuticals, Inc (San Diego, CA) provided the active ingredient, paltusotine (3-[4-(4-Aminopiperidin-1-yl)-3-(3,5-difluorophenyl)quinolin-6-yl]-2-hydroxybenzonitrile hydrochloride; CRN00808), for administration as either an oral solution (prepared on site at the Phase 1 unit) or as capsules (placebo, 5 mg, and 20 mg).
In the single-dose phase, participants were randomized 6:2 to paltusotine (1.25, 2.5, 5, 10, 20, 40, and 60 mg) or placebo in 7 cohorts (S1 to S7). Cohorts comparing oral bioavailability of solution versus capsules and the effect of a standardized high-fat, high-calorie breakfast on oral bioavailability of the capsule formulation employed the 10 mg dose level. In the multiple-dose phase, participants were randomized 6:3 to once-daily oral paltusotine capsules or placebo at doses of 5 mg for 7 days (M1, Day Last = Day 7), and 10, 20, and 30 mg daily for 10 days (M2, M3, M4, Day Last = Day 10). The initial starting dose of 1.25 mg in the single-dose phase was selected for this study based on nonclinical pharmacologic activity, pharmacokinetics, and safety studies. Subsequent doses were either specified in the protocol or were selected by the safety review committee responsible for the safety oversight of the study.
For assessing pharmacokinetics of paltusotine, the single-dose pharmacokinetic population included all randomized participants who received any amount of study drug with sufficient plasma concentration data. For the multiple-dose cohorts, only participants who received all doses were included. The relative bioavailability of the capsule formulation was determined by comparing its pharmacokinetic parameters with those of the solution formulation at the 10 mg dose. Food effect was determined at the same dose by comparing pharmacokinetic parameters in the fasting state to those when paltusotine was administered with a high-fat, high-calorie meal. For both formulation and food effect, ANOVA with treatment as a fixed effect and subject as a random effect was performed. Data for peak concentration (Cmax), AUC0-last, and AUC0-inf were natural log-transformed.

[2] = set-up: method as in doi:10.1530/endoabs.70.AEP627; conditions: separate study, cited from earlier work
[3] = Safety and tolerability, multiple-dose cohorts; type: in vivo, human
Protocol: Safety assessments included monitoring of clinical laboratory tests, cardiovascular safety monitoring (continuous Holter monitoring, ECG, telemetry), and physical examinations conducted at scheduled times throughout the study in the research units as well as post-discharge (up to 9 days after the single-dose, or up to 11 days after the last dose for multiple-dose cohorts). Adverse events and concomitant medications were recorded. Laboratory samples for clinical chemistry, hematology, coagulation tests, and urinalysis were collected under fasted conditions. Participants who discontinued prematurely attended an early termination visit. In the multiple-dose cohorts, baseline serum TSH, ACTH, and prolactin samples were collected on Day -2, and an oral glucose tolerance test (OGTT) was conducted on Day -7 or earlier. These assessments were repeated on Day 8 (M1) or Day 11 (M2 and subsequent cohorts). A safety review committee oversaw the study and made decisions to escalate, expand or decrease the dose for the cohorts based on a review of demographics, pharmacokinetics, pharmacodynamics, and safety data in a blinded fashion. For the safety analysis, adverse events were coded using the Medical Dictionary for Regulatory Activities (MedDRA® Version 20.0). Adverse events were grouped by preferred terms. Treatment-emergent adverse events (TEAEs) were summarized with descriptive statistics.

[4] = multiple-dosing, safety population N = 24
[5] = multiple-dosing, safety population N = 24, listed as Paltusotine
[6] = one subject, cohort M3 20 mg, discontinued after Day 5

Cl.N#Cc1cccc(-c2ccc3ncc(-c4cc(F)cc(F)c4)c(N4CCC(N)CC4)c3c2)c1O [paltusotine, 3-[4-(4-Aminopiperidin-1-yl)-3-(3,5-difluorophenyl)quinolin-6-yl]-2-hydroxybenzonitrile hydrochloride]
AUC0-inf geometric mean ratio, high-fat high-calorie meal relative to fasted ([1]; 10 mg capsules): 17%
Cmax geometric mean ratio, high-fat high-calorie meal relative to fasted ([1]; 10 mg capsules): 14%
AUC0-inf geometric mean ratio, capsule relative to oral solution ([1]; 10 mg, fasted): 69%
Cmax geometric mean ratio, capsule relative to oral solution ([1]; 10 mg, fasted): 83%
decrease in Cmax and AUC0-24 with food ([1]; high-fat, high-calorie meal before 10 mg capsule): more than 7 fold
Tmax ([1]; 10 mg, 10 mg capsules with high-fat, high-calorie meal): 3 h
Tmax ([1]; 10 mg, 10 mg capsules, fasted): 2.1 h
mean absolute oral bioavailability ([2]; oral solution): 70%
t1/2 after intravenous administration ([2]; sampling up to 144 h): 29 h
increase in glucose AUC0-3 upon 75 g oral glucose challenge compared to baseline ([3]; 30 mg multiple dose, 95% CI 1.8-4.6, placebo 1.5): 3.2 mmol·h/L
heart rate, ECG morphology, PR duration, QRS interval, QTcF interval ([3]; all cohorts): no clinically meaningful changes
fasting plasma glucose ([3]; multiple-dose cohorts): not significantly changed
share of TEAEs occurring at a dose level of 10 mg or higher ([3]; multiple-dose cohorts): 78%
Abdominal pain (TEAE) [3, 4]: 4 n (%)
Diarrhea (TEAE) [3, 4]: 4 n (%)
Headache (TEAE) [3, 4]: 3 n (%)
Hyperglycemia (TEAE) [3, 4]: 2 (8.3%) n (%)
Lipase/pancreatic enzymes increased (TEAE) [3, 4]: 2 (8.3%) n (%)
Participants with at least 1 TEAE [3, 4]: 17 (70.8%) n (%)
Upper respiratory tract infection (TEAE) [3, 4]: 2 (8.3%) n (%)
Ventricular tachycardia (non-sustained) (TEAE) [3, 4]: 2 (8.3%) n (%)
Abdominal pain (TEAE) [3, 5]: 4 (16.7%) n (%)
Diarrhea (TEAE) [3, 5]: 4 (16.7%) n (%)
Headache (TEAE) [3, 5]: 3 (12.5%) n (%)
amylase peak [3, 6]: 2 times the upper limit of normal
lipase peak [3, 6]: 3.9 times the upper limit of normal
lipase elevation ([3]; one subject, cohort M4 30 mg, 24 h after the tenth dose): 1.7 times the upper limit of normal
TSH, ACTH, or prolactin levels ([3]; repeated administration): no consistent trends of clinical relevance
tolerability ([3]; repeated daily capsules, 7 days (5 mg) and 10 days (10, 20, 30 mg)): well tolerated
